Reference: the supplement of paper PMC11451515

System: SEM cells
Assay: cell viability relative to DMSO control; higher = less cytotoxic
Settings: 48 h
Method in brief: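 Viability values are per-plate percentages of DMSO wells, with background from cell-free wells. Library compounds in DMSO were pin-dosed, in an 11-point threefold series from 47 μM to 0.79 nM, onto NOMO1 or SEM (500 cells/well) or P12-Ichikawa (1000 cells/well) leukemia cells in 1536-well plates (5 μl). Those cells had been adapted for at least four passages in each medium, and CellTiter-Glo One luminescence was read after 48 h at 37°C.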

[1] = HPLM + 10% dialyzed FBS, 0.000781 µM
[2] = HPLM + 10% dialyzed FBS, 0.00234 µM
[3] = HPLM + 10% dialyzed FBS, 0.00702 µM
[4] = HPLM + 10% dialyzed FBS, 0.0211 µM
[5] = HPLM + 10% dialyzed FBS, 0.0632 µM
[6] = HPLM + 10% dialyzed FBS, 0.19 µM
[7] = HPLM + 10% dialyzed FBS, 0.569 µM
[8] = HPLM + 10% dialyzed FBS, 1.71 µM
[9] = HPLM + 10% dialyzed FBS, 5.12 µM
[10] = HPLM + 10% dialyzed FBS, 15.4 µM
[11] = HPLM + 10% dialyzed FBS, 46.1 µM
[12] = RPMI 5 mM glucose + 10% FBS, 0.000781 µM
[13] = RPMI 5 mM glucose + 10% FBS, 0.00234 µM
[14] = RPMI 5 mM glucose + 10% FBS, 0.00702 µM
[15] = RPMI 5 mM glucose + 10% FBS, 0.0211 µM
[16] = RPMI 5 mM glucose + 10% FBS, 0.0632 µM
[17] = RPMI 5 mM glucose + 10% FBS, 0.19 µM
[18] = RPMI 5 mM glucose + 10% FBS, 0.569 µM
[19] = RPMI 5 mM glucose + 10% FBS, 1.71 µM
[20] = RPMI 5 mM glucose + 10% FBS, 5.12 µM
[21] = RPMI 5 mM glucose + 10% FBS, 15.4 µM
[22] = RPMI 5 mM glucose + 10% FBS, 46.1 µM
[23] = RPMI 5 mM glucose + 10% dialyzed FBS, 0.000781 µM
[24] = RPMI 5 mM glucose + 10% dialyzed FBS, 0.00234 µM
[25] = RPMI 5 mM glucose + 10% dialyzed FBS, 0.00702 µM
[26] = RPMI 5 mM glucose + 10% dialyzed FBS, 0.0211 µM
[27] = RPMI 5 mM glucose + 10% dialyzed FBS, 0.0632 µM
[28] = RPMI 5 mM glucose + 10% dialyzed FBS, 0.19 µM
[29] = RPMI 5 mM glucose + 10% dialyzed FBS, 0.569 µM
[30] = RPMI 5 mM glucose + 10% dialyzed FBS, 1.71 µM
[31] = RPMI 5 mM glucose + 10% dialyzed FBS, 5.12 µM
[32] = RPMI 5 mM glucose + 10% dialyzed FBS, 15.4 µM
[33] = RPMI 5 mM glucose + 10% dialyzed FBS, 46.1 µM

SMILES	cell viability [1] [%]	cell viability [2] [%]	cell viability [3] [%]	cell viability [4] [%]	cell viability [5] [%]	cell viability [6] [%]	cell viability [7] [%]	cell viability [8] [%]	cell viability [9] [%]	cell viability [10] [%]	cell viability [11] [%]	cell viability [12] [%]	cell viability [13] [%]	cell viability [14] [%]	cell viability [15] [%]	cell viability [16] [%]	cell viability [17] [%]	cell viability [18] [%]	cell viability [19] [%]	cell viability [20] [%]	cell viability [21] [%]	cell viability [22] [%]	cell viability [23] [%]	cell viability [24] [%]	cell viability [25] [%]	cell viability [26] [%]	cell viability [27] [%]	cell viability [28] [%]	cell viability [29] [%]	cell viability [30] [%]	cell viability [31] [%]	cell viability [32] [%]	cell viability [33] [%]
COC1=CC=C2C(=CC=NC2=C1)OC3=CC=C(NC(=O)\C4=C(C)\N(CC(C)(C)O)N(C4=O)C5=CC=CC=C5)C=C3F	108	99.9	129	108	114	112	112	98.1	60.7	45.7	39.1	113	108	122	115	117	118	104	86.1	51.1	30.7	21.6	105	110	124	108	136	130	93.8	69.7	44.4	35.8	24.2
CCC1=C(C)CN(C(=O)NCCc2ccc(S(=O)(=O)NC(=O)N[C@H]3CC[C@H](C)CC3)cc2)C1=O	78.7	91.5	93.2	93.3	86.4	104	103	109	114	104	116	81.1	92.2	95	85.5	93	92.6	94.8	100	94.7	92.6	94.7	94.9	87.6	101	86.2	93.7	94.8	96.1	87.7	94.3	96	94.1
CO[C@@H]1[C@H](N(C)C(=O)c2ccccc2)C[C@H]2O[C@]1(C)n1c3ccccc3c3c4c(c5c6ccccc6n2c5c31)C(=O)NC4	103	104	119	97	114	105	55.5	37.6	20.7	12.7	7	87	111	110	106	105	92.4	64.2	30.3	10.9	6.27	4.63	101	108	109	97	107	85.5	63	34.7	11.8	7.3	4.43
COc1cc(/C=C/C(=O)CC(=O)/C=C/c2ccc(O)c(OC)c2)ccc1O	66.6	96.9	108	98.8	102	99.5	104	118	90.4	15.1	5.19	77.5	114	119	128	137	120	120	128	99.5	23.6	5.59	72.8	96.8	106	108	107	115	107	118	90.8	34.8	5.02
Cc1cc(SCc2sc(-c3ccc(C(F)(F)F)c(F)c3)nc2C)ccc1OCC(=O)O	104	107	105	40.9	103	109	108	111	105	98.9	96.1	102	74.9	96.7	43.2	100	107	99.4	101	104	93.8	103	93.4	93.3	106	48.4	93.6	104	100	100	91.6	101	96.5
c1ccc(-c2nn3c(c2-c2ccnc4cc(OCCN5CCOCC5)ccc24)CCC3)nc1	77.4	106	121	126	126	129	115	128	145	127	110	102	125	132	125	143	134	122	138	144	123	91.1	68.3	122	137	132	135	127	125	131	117	129	82.2
Cc1c(OCC(F)(F)F)ccnc1C[S+]([O-])c1nc2ccccc2[nH]1 (stereo unspecified)	96.5	93.5	96.4	97.1	99	99.9	106	117	106	104	125	116	110	99.7	107	105	126	111	124	115	104	101	97.7	109	112	111	109	122	112	121	131	121	97.7
